# US20230081539A1, “SUPRACHOROIDAL DELIVERY OF DRUG PARTICLES TO REDUCE TOXICITY” (The Johns Hopkins University, priority 2020, published 2023)
# What was measured:
# [1] = biological target: HIF-2 (Homo sapiens, UniProt Q99814); conditions: in vitro; cited from earlier work
# [2] = biological target: HIF-1 (Homo sapiens, UniProt Q16665); conditions: in vitro; cited from earlier work
# [3] = test system: choroidal NV at Bruch's membrane rupture sites; experiment: Mouse CNV model, intravitreous injection of free ACF or PRF; format: in vivo, C57BL/6 mice; conditions: mice, 1 μl intravitreous injection of 50 ng immediately after rupture of Bruch's membrane, read after seven days
# Procedure: Seven days after rupture of Bruch's membrane, mice were euthanized, eyecups were fixed and stained with FITC-labeled Griffonia Simplicifolia lectin (GSA, Vector Laboratories, Burlingame, Calif.), and flat mounted. The area of choroidal NV at each Bruch's membrane rupture site was measured by image analysis by an observer masked with respect to treatment group. The area of choroidal NV at the 3 rupture sites in one eye was averaged to give one experimental value for each animal. […] One week after rupture of Bruch's membrane, choroidal flat mounts were stained with FITC-Griffonia simplicifolia lectin.
# [4] = Pharmacokinetics in rats: TRF and PRF in ocular tissues by LC-MS/MS after suprachoroidal PLGA-ACF MPs
# Procedure: The injection site was marked in each eye. Six rats were euthanized at each of the following time points after injection: 1 and 2 weeks, and 1, 2, 3, and 4 months. After removal of the anterior segment and lens of each eye, the retina and RPE/choroid/sclera were dissected and cut in half along the horizontal meridian through the optic nerve head and frozen separately. Samples were analyzed for acriflavine and proflavine by liquid chromatography with tandem mass spectrometry (LC-MS/MS). Tissue samples were homogenized in 200 μl of methanol and homogenized with Next Advance Bullet Blender. The analytes were extracted from 25 μl of homogenized tissue with 250 μl of acetonitrile containing internal standard (5 ng/ml of acridine orange). Samples were centrifuged and the top layer was transferred to an auto sampler vial for LC/MS/MS analysis.
# Mobile phase A was water containing 0.1% formic acid and mobile phase B was acetonitrile containing 0.1% formic acid. The gradient started with mobile phase B held at 50% for 1 minute and increased to 100% over 0.5 minutes; 100% mobile phase B was held for 1.5 minutes and then returned back to 50% mobile phase B and allowed to equilibrate for 1 minute. […] The column effluent was monitored using a Sciex 4500 triple quadrupole mass spectrometer with electrospray ionization operating in positive mode. […]
# HIF-2, sequence (Q99814 whole entry): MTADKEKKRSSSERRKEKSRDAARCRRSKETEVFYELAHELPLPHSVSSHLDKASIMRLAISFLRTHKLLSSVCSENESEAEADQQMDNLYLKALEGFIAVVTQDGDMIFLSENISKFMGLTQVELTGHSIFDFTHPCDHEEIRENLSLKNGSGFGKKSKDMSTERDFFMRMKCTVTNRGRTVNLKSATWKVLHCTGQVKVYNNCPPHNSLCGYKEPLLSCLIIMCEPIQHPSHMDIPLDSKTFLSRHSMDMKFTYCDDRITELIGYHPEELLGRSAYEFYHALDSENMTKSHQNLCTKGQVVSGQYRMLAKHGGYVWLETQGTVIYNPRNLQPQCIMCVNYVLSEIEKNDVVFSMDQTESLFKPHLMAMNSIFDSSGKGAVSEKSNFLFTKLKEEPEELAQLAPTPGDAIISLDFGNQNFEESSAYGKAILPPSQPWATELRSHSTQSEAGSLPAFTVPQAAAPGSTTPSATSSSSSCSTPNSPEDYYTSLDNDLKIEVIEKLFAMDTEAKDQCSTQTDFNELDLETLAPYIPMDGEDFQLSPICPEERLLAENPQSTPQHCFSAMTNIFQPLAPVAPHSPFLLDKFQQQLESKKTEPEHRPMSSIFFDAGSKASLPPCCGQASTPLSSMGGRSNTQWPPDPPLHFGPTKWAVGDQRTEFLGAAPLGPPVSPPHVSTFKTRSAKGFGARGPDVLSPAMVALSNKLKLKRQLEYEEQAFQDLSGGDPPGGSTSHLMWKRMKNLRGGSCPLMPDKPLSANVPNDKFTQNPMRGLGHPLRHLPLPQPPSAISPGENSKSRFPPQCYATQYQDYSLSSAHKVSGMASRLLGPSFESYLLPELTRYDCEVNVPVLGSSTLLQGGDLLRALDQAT
# HIF-1, sequence (Q16665 whole entry): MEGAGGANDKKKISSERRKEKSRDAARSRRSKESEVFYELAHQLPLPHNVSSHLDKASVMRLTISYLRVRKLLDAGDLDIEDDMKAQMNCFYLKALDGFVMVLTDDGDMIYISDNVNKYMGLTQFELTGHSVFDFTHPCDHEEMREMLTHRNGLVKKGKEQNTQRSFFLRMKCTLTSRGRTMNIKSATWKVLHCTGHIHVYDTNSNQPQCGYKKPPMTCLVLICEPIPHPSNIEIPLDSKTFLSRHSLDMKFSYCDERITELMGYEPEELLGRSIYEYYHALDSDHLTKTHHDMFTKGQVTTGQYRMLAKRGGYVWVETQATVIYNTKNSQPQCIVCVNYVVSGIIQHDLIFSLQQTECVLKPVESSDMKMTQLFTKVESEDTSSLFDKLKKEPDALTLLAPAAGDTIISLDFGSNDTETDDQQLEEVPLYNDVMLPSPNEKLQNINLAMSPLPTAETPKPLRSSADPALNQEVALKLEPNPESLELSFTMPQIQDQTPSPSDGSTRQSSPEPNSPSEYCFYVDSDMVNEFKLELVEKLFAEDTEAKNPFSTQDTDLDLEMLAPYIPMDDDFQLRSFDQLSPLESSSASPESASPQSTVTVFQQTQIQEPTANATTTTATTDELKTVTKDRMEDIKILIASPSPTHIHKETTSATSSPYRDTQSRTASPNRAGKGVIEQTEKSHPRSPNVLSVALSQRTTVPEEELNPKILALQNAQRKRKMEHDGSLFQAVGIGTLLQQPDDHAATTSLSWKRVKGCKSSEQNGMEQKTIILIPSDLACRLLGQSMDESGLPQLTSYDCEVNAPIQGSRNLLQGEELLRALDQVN
Compound,concentration that inhibits the transcriptional activity of HIF-2 [1],concentration that inhibits the transcriptional activity of HIF-1 [2],area of CNV at Bruch's membrane rupture sites compared with PBS [3],further results
"3,6-diamino-10-methylacridinium chloride mixed with 3,6-acridinediamine [ACF]",nanomolar,nanomolar,statistically significant reduction,–
"Nc1ccc2cc3ccc(N)cc3nc2c1 [PRF, proflavine]",–,–,almost identical to that of eyes treated with PBS,–
"C[n+]1c2cc(N)ccc2cc2ccc(N)cc21.[Cl-] [TRF, trypaflavine]",–,–,–,"duration of steady-state levels in the low nM range in RPE/choroid and retina ([4]; suprachoroidal PLGA-ACF MPs): at least 16 weeks; steady-state level in inferior retina ([4]; suprachoroidal PLGA-ACF MPs containing 10 μg ACF, 2 through 16 weeks): ~0.1 nM"
C[C@H]1O[C@@H](O[C@H]2[C@@H](O)C[C@H](O[C@H]3[C@@H](O)C[C@H](O[C@H]4CC[C@@]5(C)[C@H](CC[C@@H]6[C@@H]5C[C@@H](O)[C@]5(C)[C@@H](C7=CC(=O)OC7)CC[C@]65O)C4)O[C@@H]3C)O[C@@H]2C)C[C@H](O)[C@@H]1O [digoxin],nanomolar,–,–,–
C[C@@H]1O[C@@H](O[C@H]2C[C@@H](O)[C@]3(CO)[C@H]4[C@H](O)C[C@]5(C)[C@@H](C6=CC(=O)OC6)CC[C@]5(O)[C@@H]4CC[C@]3(O)C2)[C@H](O)[C@H](O)[C@H]1O [ouabain],nanomolar,–,–,–
C[C@@H]1O[C@@H](O[C@@H]2C=C3CC[C@@H]4[C@H](CC[C@]5(C)[C@@H](c6ccc(=O)oc6)CC[C@]45O)[C@@]3(C)CC2)[C@H](O)[C@H](O)[C@H]1O [proscillaridin A],nanomolar,nanomolar,–,–
